Test results: ChEMBL document CHEMBL1129744, “Novel imidazothioxanthones: Synthesis, DNA binding and cytotoxicity” (Bioorg Med Chem Lett, 1996)

Key:
HOP-92 = experiment: Compound was evaluated for cytotoxicity against HOP-92 cell lines.; format: functional, cell-based; conditions: Homo sapiens
A2780 [1] = experiment: Compound was evaluated for cytotoxicity against A2780 cell lines.; format: functional, cell-based; conditions: Homo sapiens
[2] = Compound was evaluated for induced thermal stabilization for compound: DNA ratio of 1:10 at 0.1 to 0.2 degrees Centigrade.; set-up: unit: °C
MCF7 = experiment: Compound was evaluated for cytotoxicity against MCF-7 cell lines.; format: functional, cell-based; conditions: Homo sapiens
[3] = Compound was evaluated for induced thermal stabilization for compound: DNA ratio of 1:5 at 0.1 to 0.2 degrees Centigrade.; set-up: unit: °C
MOLT-4 = experiment: Compound was evaluated for cytotoxicity against MOLT-4 cell lines.; format: functional, cell-based; conditions: Homo sapiens
SK-OV-3 = experiment: Compound was evaluated for cytotoxicity against SCOV-3 cell lines.; format: functional, cell-based; conditions: Homo sapiens
SW-620 = experiment: Compound was evaluated for cytotoxicity against SW-620 cell lines.; format: functional, cell-based; conditions: Homo sapiens
A2780 [4] = experiment: Compound was evaluated for cytotoxicity against A2780 cis cell lines.; format: functional, cell-based; conditions: Homo sapiens
MAC15A = experiment: Compound was evaluated for cytotoxicity against Mac15A cell lines.; format: functional, cell-based; conditions: Mus musculus
WEHI = experiment: Compound was evaluated for cytotoxicity against WEHI cell lines.; format: functional, cell-based; conditions: Mus musculus

Row | Change in Tm [2] | Change in Tm [3] | SMILES | IC50 (HOP-92) | IC50 (A2780 [1]) | IC50 (MCF7) | IC50 (MOLT-4) | IC50 (SK-OV-3) | IC50 (SW-620) | IC50 (A2780 [4]) | IC50 (MAC15A) | IC50 (WEHI)
1 | 3.4 | 6.5 | O=C(NCCN1CCCC1)c1cn2c(ccc3sc4ccccc4c(=O)c32)n1 | 15.9 µM | 4500 nM | 0.61 µM | 470 nM | 29 µM | 1520 nM | 6000 nM | – | –
2 | 1.9 | 3.5 | O=C(c1cn2c(ccc3sc4ccccc4c(=O)c32)n1)N1CCN(CCO)CC1 | – | 740 nM | – | – | 13.5 µM | – | 1800 nM | 420 nM | –
3 | 6 | 10.5 | O=C(NCCN1CCCCC1)c1cn2c(ccc3sc4ccccc4c(=O)c32)n1 | – | 560 nM | – | – | 7.7 µM | – | 650 nM | 180 nM | –
4 | 7 | 12.4 | CCN(CC)CCCNC(=O)c1cn2c(ccc3sc4ccccc4c(=O)c32)n1 | – | 430 nM | – | – | 1.65 µM | – | 480 nM | – | –
5 | 0.5 | 1.2 | CCOC(=O)c1cn2c(ccc3sc4ccccc4c(=O)c32)n1 | 87.5 µM | > 100000 nM | 84.4 µM | > 100000 nM | > 100 µM | > 100000 nM | > 100000 nM | – | > 100000 nM
6 | 1.6 | 2.9 | O=C(NCCN1CCOCC1)c1cn2c(ccc3sc4ccccc4c(=O)c32)n1 | 12.8 µM | 5800 nM | 7.08 µM | 3300 nM | 23 µM | 4850 nM | 7600 nM | – | –
7 | 5.7 | 10.4 | CN(C)CCCNC(=O)c1cn2c(ccc3sc4ccccc4c(=O)c32)n1 | 0.36 µM | 540 nM | 11.2 µM | 420 nM | 2.15 µM | 1440 nM | 760 nM | 500 nM | 300 nM
8 | 6.3 | 11.5 | Nc1ccc2cc3ccc(N)cc3nc2c1 [PROFLAVINE] | – | – | – | – | – | – | – | – | –

Row | SMILES | Change in Tm [2] | Change in Tm [3] | IC50 (HOP-92) | IC50 (A2780 [1]) | IC50 (MCF7) | IC50 (MOLT-4) | IC50 (SK-OV-3) | IC50 (SW-620) | IC50 (A2780 [4]) | IC50 (MAC15A) | IC50 (WEHI)
9 | O=C1c2c(O)ccc(O)c2C(=O)c2c(NCCNCCO)ccc(NCCNCCO)c21 [MITOXANTRONE] | 15 | > 25 | – | 5500 nM | – | – | – | – | – | – | –
